Target: Gamma-aminobutyric acid type B receptor subunit 1 (UniProt Q9Z0U4)
Sequence (Q9Z0U4 whole entry): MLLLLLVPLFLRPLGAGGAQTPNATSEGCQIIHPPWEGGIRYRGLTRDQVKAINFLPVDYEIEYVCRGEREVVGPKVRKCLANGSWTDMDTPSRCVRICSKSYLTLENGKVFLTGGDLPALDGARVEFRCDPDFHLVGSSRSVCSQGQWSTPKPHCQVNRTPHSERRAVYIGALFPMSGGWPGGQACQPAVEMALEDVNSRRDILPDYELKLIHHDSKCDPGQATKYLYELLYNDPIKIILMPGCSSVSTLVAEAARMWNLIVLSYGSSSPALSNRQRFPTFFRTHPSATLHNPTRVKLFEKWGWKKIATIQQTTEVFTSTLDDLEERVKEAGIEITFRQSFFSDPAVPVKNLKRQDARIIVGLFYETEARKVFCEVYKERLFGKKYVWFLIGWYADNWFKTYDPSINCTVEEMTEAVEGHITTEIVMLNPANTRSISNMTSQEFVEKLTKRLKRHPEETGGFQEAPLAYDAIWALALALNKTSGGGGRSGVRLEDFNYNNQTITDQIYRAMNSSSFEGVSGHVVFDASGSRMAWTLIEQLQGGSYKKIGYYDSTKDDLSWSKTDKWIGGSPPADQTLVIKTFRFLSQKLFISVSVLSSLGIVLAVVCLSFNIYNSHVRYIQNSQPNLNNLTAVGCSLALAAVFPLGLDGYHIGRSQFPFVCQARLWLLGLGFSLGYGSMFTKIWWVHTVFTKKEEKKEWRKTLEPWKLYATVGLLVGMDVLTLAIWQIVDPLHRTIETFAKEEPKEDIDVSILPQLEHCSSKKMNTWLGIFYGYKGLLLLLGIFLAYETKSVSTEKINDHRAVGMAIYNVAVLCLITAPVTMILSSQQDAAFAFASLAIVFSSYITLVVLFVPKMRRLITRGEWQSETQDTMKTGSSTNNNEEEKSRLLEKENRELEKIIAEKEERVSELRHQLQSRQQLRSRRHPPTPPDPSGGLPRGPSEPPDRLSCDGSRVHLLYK

Structure (SMILES) | Ki
O=C(O)[C@@H]1CCCNC1 (racemic) [Nipecotic] | > 10000 nM
N[C@@H]1C(=O)N2C(C(=O)O)=C(CSc3cnn[nH]3)CS[C@H]12 [CAS_37539-03-0] | 51 nM
NCc1cc(=O)[nH]o1 | 10 nM
c1c[nH]cn1 | 229 nM
CC(C)(O)C1C2OC(=O)C1C1(O)CC3OC34C(=O)OC2C14C (stereo not given) [NSC_5311359] | > 10000 nM
